Results from patent US7511144B2, “Reverse hydroxamic acid derivatives” (Kaken Pharmaceutical Co., Ltd., priority 2001, dated 2009).
Like-named read-outs stand apart in the source and are kept apart here.

Assays:
Type in all cases: biochemical
[1] = target: T1, Human MMP14 (Homo sapiens, UniProt P50281); assay: MMP14 inhibition experiment; conditions: concentration required for 50% inhibition of enzyme activity; read-out: IC50 value MMP-14
T1 construct: purchased Biogenesis or Calbiochem 5980-1461 or 475935
Experimental: (§1) MMP inhibition experiment may be carried out using a fluorescent synthetic substrate according to, for example, the methods of Bickett et al. (D. Mark Bickett et al., Anal. Biochem., 1993, 212, 58-64) and Nagase et al. (H. Nagase et al., J. Biol. Chem., 1994, 269, 20952-20957). The methods of inhibition experiments carried out for various MMPs are described below.
Human MMP14 (Biogenesis #5980-1461 or Calbiochem #475935) in amount of 90 μL (4 ng) prepared in the assay buffer A was added to 90 μL of 20 μM fluorescent substrate (Dnp-Pro-Cha-Gly-Cys(Me)-His-Ala-Lys(Nma)-NH2) prepared in the assay buffer B, followed by reaction for 5 hours at 37° C.

[2] = target: T2, Human MMP2 (Homo sapiens, UniProt P08253); assay: MMP2 inhibition experiment; conditions: concentration required for 50% inhibition of enzyme activity; read-out: IC50 value MMP-2
T2 construct: purchased Calbiochem 444213
T2 sequence (P08253 110-660): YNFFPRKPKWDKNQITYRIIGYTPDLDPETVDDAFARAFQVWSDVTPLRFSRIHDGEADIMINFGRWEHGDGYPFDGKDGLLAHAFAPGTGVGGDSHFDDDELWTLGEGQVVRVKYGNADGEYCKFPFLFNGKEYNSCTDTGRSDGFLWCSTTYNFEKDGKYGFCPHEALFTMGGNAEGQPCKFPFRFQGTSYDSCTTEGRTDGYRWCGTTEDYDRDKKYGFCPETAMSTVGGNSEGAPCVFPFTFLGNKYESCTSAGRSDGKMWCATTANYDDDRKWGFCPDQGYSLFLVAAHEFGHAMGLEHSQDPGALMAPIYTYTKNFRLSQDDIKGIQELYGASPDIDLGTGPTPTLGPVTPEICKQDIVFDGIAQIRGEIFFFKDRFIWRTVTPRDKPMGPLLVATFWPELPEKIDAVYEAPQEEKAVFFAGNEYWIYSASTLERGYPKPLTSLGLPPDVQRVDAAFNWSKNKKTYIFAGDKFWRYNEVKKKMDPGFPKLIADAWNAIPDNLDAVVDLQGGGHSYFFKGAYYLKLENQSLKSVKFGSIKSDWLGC
Experimental: This enzyme solution in amount of 10 μL was diluted to 90 μL with the assay buffer A, which was added to 90 μL of 20 μM fluorescent substrate (MOCAc((7-methoxycoumarin-4-yl)acetyl)-Pro-Leu-Gly-Leu-A2pr(Dnp)-Ala-Arg-NH2, Peptide Institute, Inc., #3163-v) prepared in the assay buffer B, followed by reaction for 5 hours at 37° C.

[3] = target: T3, Human MMP9 (Homo sapiens, UniProt P14780); assay: MMP9 inhibition experiment; conditions: read-out: IC50 value MMP-9
T3 construct: purchased Calbiochem 444231
Experimental: This enzyme solution in amount of 1 μL was diluted to 90 μL with the assay buffer A, which was added to 90 μL of 20 μM fluorescent substrate (Dnp-Pro-Cha-Gly-Cys(Me)-His-Ala-Lys(Nma)-NH2) prepared in the assay buffer B, followed by reaction for 4 hours at 37° C.

[4] = target: T4, Human MMP17 (Homo sapiens, UniProt Q9ULZ9); assay: MMP17 inhibition test; conditions: concentration required for 50% inhibition of enzyme activity; read-out: IC50 value MMP-17
T4 construct: purchased Calbiochem 475940
T4 sequence (Q9ULZ9 126-300 limits assumed): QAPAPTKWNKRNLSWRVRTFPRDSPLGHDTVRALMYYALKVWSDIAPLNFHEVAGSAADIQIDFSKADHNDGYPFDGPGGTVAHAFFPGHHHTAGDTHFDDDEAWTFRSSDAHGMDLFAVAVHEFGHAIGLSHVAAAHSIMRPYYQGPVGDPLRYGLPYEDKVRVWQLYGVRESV

[5] = target: T5, Human MMP1 (Homo sapiens, UniProt P03956); assay: MMP1 inhibition experiment; conditions: read-out: IC50 value MMP-1
T5 construct: purchased Calbiochem 444208
T5 sequence (P03956 100-469): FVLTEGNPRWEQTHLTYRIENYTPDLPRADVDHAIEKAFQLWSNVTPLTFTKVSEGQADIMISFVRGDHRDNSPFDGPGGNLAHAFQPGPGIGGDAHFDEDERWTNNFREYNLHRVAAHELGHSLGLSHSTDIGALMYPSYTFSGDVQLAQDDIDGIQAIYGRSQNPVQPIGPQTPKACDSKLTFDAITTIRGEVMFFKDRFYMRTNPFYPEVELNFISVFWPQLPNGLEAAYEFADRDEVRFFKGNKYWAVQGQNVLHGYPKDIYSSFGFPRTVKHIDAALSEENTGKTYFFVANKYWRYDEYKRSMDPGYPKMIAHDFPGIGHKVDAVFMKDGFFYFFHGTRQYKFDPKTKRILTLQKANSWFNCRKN
Experimental: This enzyme solution in amount of 10 μL was diluted to 90 μL with the assay buffer A, which was added to 90 μL of 20 μM fluorescent substrate (Dnp-Pro-Cha(β-cyclohexylalanyl)-Gly-Cys(Me)-His-Ala-Lys(Nma)-NH2) prepared in the assay buffer B, followed by reaction for 5 hours at 37° C.

[6] = target: T6, Human MMP3 (Homo sapiens, UniProt P08254); assay: MMP3 inhibition experiment; conditions: concentration required for 50% inhibition of enzyme activity; read-out: IC50 value MMP-3
T6 construct: purchased Calbiochem 444217
Experimental: as §1
Human MMP3 (Calbiochem #444217) in 90 μL (5 ng) prepared in the assay buffer A was added to 90 μL of 20 μM fluorescent substrate NFF-3(MOCAc-Arg-Pro-Lys-Pro-Val-Glu-Nva-Trp-Arg-Lys(Dnp)-NH2, Peptide Institute, Inc., #3168-v) prepared in the assay buffer B, followed by reaction for 5 hours at 37° C.

[7] = target: T7, Human MMP13 (Homo sapiens, UniProt P45452); assay: MMP13 inhibition experiment
T7 construct: purchased Chemicon CC068
Experimental: Human MMP13 (Chemicon #CC068) in amount of 90 μL (200 ng) was activated by mixing with 10 μL of 10 mM APMA, followed by reaction for 1 hour at 37° C. This enzyme solution in amount of 0.6 μL was diluted to 90 μL with the assay buffer A, which was added to 90 μL of 20 μM fluorescent substrate (Dnp-Pro-Cha-Gly-Cys(Me)-His-Ala-Lys(Nma)-NH2) prepared in the assay buffer B, followed by reaction for 4 hours at 37° C.

[8] = target: T8, TACE (Homo sapiens, UniProt P78536); assay: TACE inhibition experiment (in vitro)
T8 construct: made in house; host or cells: mammalian cells or insect cells
Experimental: TACE inhibition experiments were conducted using TACE obtained as above as an enzyme and by measuring TACE activity in the presence or absence of a test substance using Nma (N-metylanthranilic acid)-[sequence]Dnp(dinitrophenyl)-D-Arg-NH2 being a fluorescent synthetic substrate which contains the sequence of cleavage site of membrane-bound TNF by TACE, as a substrate.
More specifically, 14 units of an enzyme solution (1 unit is defined as the amount of enzyme which degrades 1 pmol of the substrate per minute at 25° C.) which was prepared in 90 μL of assay buffer A (50 mM Tris-HCl buffer (pH 7.5) containing 200 mM sodium chloride, 5 mM calcium chloride, 10 μM zinc sulfate, 0.004% sodium azide and 2 mg/mL bovine serum albumin) and 90 μL of 20 μM fluorescent synthetic substrate prepared in assay buffer B (50 mM Tris-HCl buffer (pH 7.5) containing 200 mM sodium chloride, 5 mM calcium chloride, 10 μM zinc sulfate, 0.004% sodium azide and 0.05% PLURONIC F-68) are mixed and reacted for 2 hours at 37° C.

[9] = concentration required for 50% inhibition of enzyme activity, read-out: IC50 value MMP-13
[10] = concentration required for 50% inhibition of enzyme activity

T3 sequence (P14780 107-707 limits assumed): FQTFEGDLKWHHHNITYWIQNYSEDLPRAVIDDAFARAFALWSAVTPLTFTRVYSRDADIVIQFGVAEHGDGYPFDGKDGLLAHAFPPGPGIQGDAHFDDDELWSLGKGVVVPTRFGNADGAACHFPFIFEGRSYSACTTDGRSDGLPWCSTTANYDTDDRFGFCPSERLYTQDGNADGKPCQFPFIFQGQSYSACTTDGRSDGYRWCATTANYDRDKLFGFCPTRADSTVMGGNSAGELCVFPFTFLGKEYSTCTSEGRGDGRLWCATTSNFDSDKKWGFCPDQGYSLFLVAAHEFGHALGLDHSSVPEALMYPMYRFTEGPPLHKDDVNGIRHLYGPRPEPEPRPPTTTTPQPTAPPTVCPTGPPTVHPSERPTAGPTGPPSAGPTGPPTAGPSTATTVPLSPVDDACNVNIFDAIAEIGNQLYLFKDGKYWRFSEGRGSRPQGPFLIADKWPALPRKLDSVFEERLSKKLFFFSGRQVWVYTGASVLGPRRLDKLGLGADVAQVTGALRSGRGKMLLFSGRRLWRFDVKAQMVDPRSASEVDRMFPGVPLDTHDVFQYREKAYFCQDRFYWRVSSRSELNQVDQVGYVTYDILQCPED
T8 sequence (P78536 215-824): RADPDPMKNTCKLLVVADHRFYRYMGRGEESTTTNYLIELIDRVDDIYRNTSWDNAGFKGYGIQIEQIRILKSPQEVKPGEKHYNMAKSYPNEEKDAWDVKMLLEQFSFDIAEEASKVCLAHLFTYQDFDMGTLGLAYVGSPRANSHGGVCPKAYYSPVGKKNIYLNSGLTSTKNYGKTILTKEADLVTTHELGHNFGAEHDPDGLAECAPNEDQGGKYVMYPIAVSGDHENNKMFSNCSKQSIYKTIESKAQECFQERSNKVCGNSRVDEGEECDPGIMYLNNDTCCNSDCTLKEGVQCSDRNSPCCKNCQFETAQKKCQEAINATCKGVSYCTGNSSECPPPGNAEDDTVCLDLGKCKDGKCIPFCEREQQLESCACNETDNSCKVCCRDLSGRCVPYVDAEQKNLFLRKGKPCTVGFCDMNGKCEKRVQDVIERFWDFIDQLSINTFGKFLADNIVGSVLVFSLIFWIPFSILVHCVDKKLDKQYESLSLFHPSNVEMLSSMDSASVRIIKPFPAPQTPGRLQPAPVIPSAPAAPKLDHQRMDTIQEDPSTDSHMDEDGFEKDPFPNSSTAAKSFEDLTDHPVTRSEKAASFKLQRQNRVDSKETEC
T6 sequence (P08254 100-272 limits assumed): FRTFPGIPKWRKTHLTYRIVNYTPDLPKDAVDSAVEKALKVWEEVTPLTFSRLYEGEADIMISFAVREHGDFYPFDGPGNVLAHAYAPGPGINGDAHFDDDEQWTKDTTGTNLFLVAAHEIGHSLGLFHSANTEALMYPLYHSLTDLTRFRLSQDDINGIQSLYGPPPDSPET

Compound | IC50 [1] | IC50 [2] | IC50 [3] | IC50 [4] | IC50 [5] | IC50 [6] | IC50 [7, 9] | IC50 [8] | IC50 [3, 10] | IC50 [8, 10] | IC50 ([7]; IC50 value MMP-13, concentration required for 50% inhibition of enzyme activity) | IC50 [5, 10]
CC(=O)N(O)C(C=C1CCSCC1)CS(=O)(=O)c1ccc(OCc2cc(C)nc3ccccc23)cc1 (stereo not drawn) [Example I-126, N-hydroxy-N-{2-[4-(2-methylquinolin-4-ylmethoxy)benzenesulfonyl]-1-(tetrahydrothipyran-4-ylidenemethyl)ethyl}acetamide] | > 100 µM | > 100 µM | > 100 µM | 6.3 µM | > 100 µM | 12 µM | 70 µM | 0.31 µM | – | – | – | –
COc1cc(C)cc(COc2ccc(S(=O)(=O)CC(C=C3CCC(=O)CC3)N(O)C=O)cc2)c1 (stereo not drawn) [Example I-94] | 40 µM | 23 µM | 40 µM | 22 µM | 90 µM | 21 µM | 20 µM | 0.08 µM | – | – | – | –
Cc1cc(COc2ccc(S(=O)(=O)CC(C=C3CCC(=O)CC3)N(O)C=O)cc2)cc(C)n1 (stereo not drawn) [Example I-114] | > 100 µM | 7 µM | > 100 µM | 30 µM | > 100 µM | 23 µM | 10 µM | 0.1 µM | – | – | – | –
Cc1cc(COc2ccc(S(=O)(=O)CC(C=C3CCSCC3)N(O)C(N)=O)cc2)c2ccccc2n1 (stereo not drawn) [Example I-125, 1-hydroxy-1-{2-[4-(2-methylquinolin-4-ylmethoxy)benzenesulfonyl]-1-(tetrahydrothiopyran-4-ylidenemethyl)ethyl}urea] | > 100 µM | > 100 µM | > 100 µM | > 100 µM | > 100 µM | > 100 µM | > 100 µM | 0.63 µM | – | – | – | –
COc1cc(C)cc(COc2ccc(S(=O)(=O)CC(CC3CCC4(CC3)OCCO4)N(O)C=O)cc2)c1 (stereo not drawn) [Example I-93] | 33 µM | 10 µM | 30 µM | 20 µM | 60 µM | 15 µM | 12 µM | 0.3 µM | – | – | – | –
Cc1cc(C)cc(COc2ccc(S(=O)(=O)CC(C=C3CCC4(CC3)OCCO4)N(O)C=O)cc2)c1 (stereo not drawn) [Example I-91] | 40 µM | 43 µM | 33 µM | 40 µM | > 100 µM | 35 µM | 35 µM | 0.4 µM | – | – | – | –
Cc1cc(Cl)cc(COc2ccc(S(=O)(=O)CC(CC3CCC(=O)CC3)N(O)C=O)cc2)c1 (stereo not drawn) [Example I-101] | 20 µM | 2.3 µM | 20 µM | 5 µM | 40 µM | 7 µM | 3 µM | 0.12 µM | – | – | – | –
Cc1cc(COc2ccc(S(=O)(=O)CC(C3CCC(=O)CC3)N(O)C=O)cc2)c2ccccc2n1 (stereo not drawn) [Example I-11, N-Hydroxy-N-{2-[4-(2-methylquinolin-4-ylmethoxy)benzenesulfonyl]-1-(4-oxocyclohexyl)ethyl}formamide] | 35 µM | 30 µM | – | 0.6 µM | 45 µM | 2 µM | 7 µM | – | 28 µM | 0.02 µM | – | –
Cc1cc(COc2ccc(S(=O)(=O)CC(C(Cl)=C3CCOCC3)N(O)C=O)cc2)c2ccccc2n1 (stereo not drawn) [Example I-19] | > 100 µM | > 100 µM | > 100 µM | 7 µM | > 100 µM | 20 µM | 70 µM | 0.0063 µM | – | – | – | –
Cc1cc(COc2ccc(S(=O)(=O)CC(CC3CCC(=NO)CC3)N(O)C=O)cc2)cc(C)n1 (stereo not drawn) [Example I-112] | 60 µM | 1.3 µM | 40 µM | 4 µM | > 100 µM | 4 µM | 2 µM | 0.063 µM | – | – | – | –
Cc1cc(COc2ccc(S(=O)(=O)CC(c3ccccc3C)N(O)C=O)cc2)c2ccccc2n1 (stereo not drawn) [Example I-23] | 33 µM | 30 µM | 50 µM | 2.1 µM | 60 µM | 3 µM | 15 µM | 0.005 µM | – | – | – | –
Cc1cc(C)cc(COc2ccc(S(=O)(=O)CC(C=C3CCC(=O)CC3)N(O)C=O)cc2)c1 (stereo not drawn) [Example I-92] | > 100 µM | 43 µM | 60 µM | 40 µM | > 100 µM | 60 µM | 35 µM | 0.3 µM | – | – | – | –
CC[C@H](C)[C@H](NC(=O)[C@H](CC(C)C)[C@H](C(C)C)N(O)C=O)C(=O)Nc1ccccn1 [compound 3, (2R,3S)-3-(formylhydroxyamino)-2-(2-methyl-1-propyl)-4-methylpentanoic acid [(1S,2S)-2-methyl-1-(pyridin-2-ylcarbamoyl)-1-butyl]amide, reference compound] | 0.07 µM | – | 0.03 µM | 0.013 µM | 0.045 µM | 0.03 µM | – | 0.035 µM | – | – | 0.01 µM | –
COc1cc(C)cc(COc2ccc(S(=O)(=O)CC(C=C3CCC4(CC3)OCCO4)N(O)C=O)cc2)c1 (stereo not drawn) [Example I-95] | > 100 µM | > 100 µM | > 100 µM | > 100 µM | > 100 µM | > 100 µM | > 100 µM | 1.5 µM | – | – | – | –
Cc1cc(COc2ccc(S(=O)(=O)N3CCSC(C)(C)[C@@H]3C(=O)NO)cc2)cc(C)n1 [compound 1, reference compound] | 8 µM | – | – | 0.02 µM | – | 0.08 µM | 0.2 µM | – | 10 µM | 0.01 µM | – | 20 µM
Cc1cc(COc2ccc(S(=O)(=O)CC(C=C3CCC(=O)CC3)N(O)C=O)cc2)c2ccccc2n1 (stereo not drawn) [Example I-3, N-Hydroxy-N-[2-{4-(2-methylquinolin-4-ylmethoxy)benzenesulfonyl}-1-(4-oxocyclohexylidenemethyl)ethyl]formamide] | 43 µM | – | – | 2.5 µM | > 100 µM | 6.3 µM | 22 µM | – | 50 µM | 0.0035 µM | – | –
C=C1CCC(C(CS(=O)(=O)c2ccc(OCc3cc(C)cc(C)c3)cc2)N(O)C=O)CC1 (stereo not drawn) [Example I-5, N-[2-{4-(3,5-Dimethylbenzyloxy)benzenesulfonyl}-1-(4-methylenecyclohexyl)ethyl]-N-hydroxyformamide] | 25 µM | – | 22 µM | 5 µM | 33 µM | 20 µM | 10 µM | 0.43 µM | – | – | – | –
